Measured values: US4335249A, “Herbicidal diphenyl ethers, sulfides, sulfoxides and sulfones” (Rohm and Haas Company, priority 1976, dated 1982)

Tests used:
Format in all cases: in vivo
[1] = system: barnyardgrass (Echinochloa crusgalli); assay: Preemergence herbicidal activity, barnyardgrass; conditions: Echinochloa crus-galli, pre-emergence, 336 h; Pre, 2 lb/A
Protocol: (§1) Using the procedure described below, compounds of the invention are evaluated for control of several of the following plant species:
(§2) The following est procedure is employed. Seeds of selected crops and weeds are planted in soil in flats. For preemergence tests, the flats are treated with the test compound immediately after the planting. For postemergence tests, the seeds are allowed to germinate, and after two weeks the flats are treated with the test compound. The compound to be evaluated is dissolved in acetone, diluted with water, and sprayed over the flats using a carrier volume equivalent to 50 gallons per acre at the rate of application (pounds per acre, lb/A.) specified in the tables.

[2] = system: foxtail (Setaria spp.); assay: Postemergence herbicidal activity, foxtail; conditions: Setaria, post-emergence, 336 h, Post, 2 lb/A
Protocol: as §1
as §2, with “tables. About two weeks after the application of the test compound, the state of growth of the plants is observed and the phytotoxic effect of the compound is evaluated. Tables III and IV give the average percent control achieved by test compounds in terms of the percent of the plants which are killed by the compounds.” for “tables.”

[3] = system: foxtail (Setaria spp.); assay: Preemergence herbicidal activity, foxtail; conditions: Setaria, pre-emergence, 336 h; Pre, 2 lb/A
Protocol: as §1
as §2, with “tables. About two weeks after the application of the test compound, the state of growth of the plants is observed and the phytotoxic effect of the compound is evaluated. Tables III and IV give the average percent control achieved by test compounds in terms of the percent of the plants which are killed by the compounds.” for “tables.”

[4] = system: cocklebur (Xanthium pensylvanicum); assay: Postemergence herbicidal activity, cocklebur; conditions: Xanthium strumarium, post-emergence, 336 h, 2 lb/A
Protocol: as §1
as §2, with “tables. About two weeks after the application of the test compound, the state of growth of the plants is observed and the phytotoxic effect of the compound is evaluated. Tables III and IV give the average percent control achieved by test compounds in terms of the percent of the plants which are killed by the compounds.” for “tables.”

[5] = system: tomato (Lycopersicon esculentum); assay: Preemergence herbicidal activity, tomato; conditions: Solanum lycopersicum, pre-emergence, 336 h; Pre, 2 lb/A
Protocol: as §1
as §2, with “tables. About two weeks after the application of the test compound, the state of growth of the plants is observed and the phytotoxic effect of the compound is evaluated. Tables III and IV give the average percent control achieved by test compounds in terms of the percent of the plants which are killed by the compounds.” for “tables.”

[6] = system: marigold (Tagetes spp.); assay: Preemergence herbicidal activity, marigold; conditions: pre-emergence, 336 h, 2 lb/A
Protocol: as §1
as §2, with “tables. About two weeks after the application of the test compound, the state of growth of the plants is observed and the phytotoxic effect of the compound is evaluated. Tables III and IV give the average percent control achieved by test compounds in terms of the percent of the plants which are killed by the compounds.” for “tables.”

[7] = system: barnyardgrass (Echinochloa crusgalli); assay: Postemergence herbicidal activity, barnyardgrass; conditions: Echinochloa crus-galli, post-emergence, 336 h; Post, 2 lb/A
Protocol: as §1, §2

[8] = system: wild oats (Avena fatua); assay: Postemergence herbicidal activity, wild oats; conditions: Avena fatua, post-emergence, 336 h, Post, 2 lb/A; read-out: % control, Wild oat
Protocol: as §1
as §2, with “tables. About two weeks after the application of the test compound, the state of growth of the plants is observed and the phytotoxic effect of the compound is evaluated. Tables III and IV give the average percent control achieved by test compounds in terms of the percent of the plants which are killed by the compounds.” for “tables.”

[9] = system: velvetleaf (Abutilon theophrasti); assay: Preemergence herbicidal activity, velvetleaf; conditions: Abutilon theophrasti, pre-emergence, 336 h; Pre, 2 lb/A
Protocol: as §1
as §2, with “tables. About two weeks after the application of the test compound, the state of growth of the plants is observed and the phytotoxic effect of the compound is evaluated. Tables III and IV give the average percent control achieved by test compounds in terms of the percent of the plants which are killed by the compounds.” for “tables.”

[10] = system: yellow nutsedge (Cyperus esculentus); assay: Postemergence herbicidal activity, yellow nutsedge; conditions: Cyperus, post-emergence, 336 h, 2 lb/A
Protocol: as §1
as §2, with “tables. About two weeks after the application of the test compound, the state of growth of the plants is observed and the phytotoxic effect of the compound is evaluated. Tables III and IV give the average percent control achieved by test compounds in terms of the percent of the plants which are killed by the compounds.” for “tables.”

[11] = system: morningglory (Ipomoca spp.); assay: Postemergence herbicidal activity, morningglory; conditions: Ipomoea, post-emergence, 336 h, 2 lb/A
Protocol: as §1
as §2, with “tables. About two weeks after the application of the test compound, the state of growth of the plants is observed and the phytotoxic effect of the compound is evaluated. Tables III and IV give the average percent control achieved by test compounds in terms of the percent of the plants which are killed by the compounds.” for “tables.”

[12] = system: yellow nutsedge (Cyperus esculentus); assay: Preemergence herbicidal activity, yellow nutsedge; conditions: Cyperus, pre-emergence, 336 h, 2 lb/A
Protocol: as §1
as §2, with “tables. About two weeks after the application of the test compound, the state of growth of the plants is observed and the phytotoxic effect of the compound is evaluated. Tables III and IV give the average percent control achieved by test compounds in terms of the percent of the plants which are killed by the compounds.” for “tables.”

[13] = system: downybrome (Bromus tectorum); assay: Preemergence herbicidal activity, downybrome; conditions: Bromus tectorum, pre-emergence, 336 h, Pre, 2 lb/A
Protocol: as §1
as §2, with “tables. About two weeks after the application of the test compound, the state of growth of the plants is observed and the phytotoxic effect of the compound is evaluated. Tables III and IV give the average percent control achieved by test compounds in terms of the percent of the plants which are killed by the compounds.” for “tables.”

[14] = system: downybrome (Bromus tectorum); assay: Postemergence herbicidal activity, downybrome; conditions: Bromus tectorum, post-emergence, 336 h, Post, 2 lb/A
Protocol: as §1
as §2, with “tables. About two weeks after the application of the test compound, the state of growth of the plants is observed and the phytotoxic effect of the compound is evaluated. Tables III and IV give the average percent control achieved by test compounds in terms of the percent of the plants which are killed by the compounds.” for “tables.”

[15] = system: wild oats (Avena fatua); assay: Preemergence herbicidal activity, wild oats; conditions: Avena fatua, pre-emergence, 336 h, Pre, 2 lb/A; read-out: % control, Wild oat
Protocol: as §1
as §2, with “tables. About two weeks after the application of the test compound, the state of growth of the plants is observed and the phytotoxic effect of the compound is evaluated. Tables III and IV give the average percent control achieved by test compounds in terms of the percent of the plants which are killed by the compounds.” for “tables.”

[16] = system: velvetleaf (Abutilon theophrasti); assay: Postemergence herbicidal activity, velvetleaf; conditions: Abutilon theophrasti, post-emergence, 336 h, 2 lb/A
Protocol: as §1, §2

[17] = system: morningglory (Ipomoca spp.); assay: Preemergence herbicidal activity, morningglory; conditions: Ipomoea, pre-emergence, 336 h, 2 lb/A
Protocol: as §1
as §2, with “tables. About two weeks after the application of the test compound, the state of growth of the plants is observed and the phytotoxic effect of the compound is evaluated. Tables III and IV give the average percent control achieved by test compounds in terms of the percent of the plants which are killed by the compounds.” for “tables.”

[18] = system: tomato (Lycopersicon esculentum); assay: Postemergence herbicidal activity, tomato; conditions: Solanum lycopersicum, post-emergence, 336 h, Post, 2 lb/A
Protocol: as §1
as §2, with “tables. About two weeks after the application of the test compound, the state of growth of the plants is observed and the phytotoxic effect of the compound is evaluated. Tables III and IV give the average percent control achieved by test compounds in terms of the percent of the plants which are killed by the compounds.” for “tables.”

[19] = system: marigold (Tagetes spp.); assay: Postemergence herbicidal activity, marigold; conditions: post-emergence, 336 h, 2 lb/A
Protocol: as §1
as §2, with “tables. About two weeks after the application of the test compound, the state of growth of the plants is observed and the phytotoxic effect of the compound is evaluated. Tables III and IV give the average percent control achieved by test compounds in terms of the percent of the plants which are killed by the compounds.” for “tables.”

[20] = system: cocklebur (Xanthium pensylvanicum); assay: Preemergence herbicidal activity, cocklebur; conditions: Xanthium strumarium, pre-emergence, 336 h, 2 lb/A
Protocol: as §1
as §2, with “tables. About two weeks after the application of the test compound, the state of growth of the plants is observed and the phytotoxic effect of the compound is evaluated. Tables III and IV give the average percent control achieved by test compounds in terms of the percent of the plants which are killed by the compounds.” for “tables.”

Structure (SMILES)	pest or weed control at 2241.7 g/ha [1] [%]	pest or weed control at 2241.7 g/ha [2] [%]	pest or weed control at 2241.7 g/ha [3] [%]	pest or weed control at 2241.7 g/ha [4] [%]	pest or weed control at 2241.7 g/ha [5] [%]	pest or weed control at 2241.7 g/ha [6] [%]	pest or weed control at 2241.7 g/ha [7] [%]	pest or weed control at 2241.7 g/ha [8] [%]	pest or weed control at 2241.7 g/ha [9] [%]	pest or weed control at 2241.7 g/ha [10] [%]	pest or weed control at 2241.7 g/ha [11] [%]	pest or weed control at 2241.7 g/ha [12] [%]	pest or weed control at 2241.7 g/ha [13] [%]	pest or weed control at 2241.7 g/ha [14] [%]	pest or weed control at 2241.7 g/ha [15] [%]	pest or weed control at 2241.7 g/ha [16] [%]	pest or weed control at 2241.7 g/ha [17] [%]	pest or weed control at 2241.7 g/ha [18] [%]	pest or weed control at 2241.7 g/ha [19] [%]	pest or weed control at 2241.7 g/ha [20] [%]
CCOC(=O)C(C)Oc1ccc(Oc2ccc(C(F)(F)F)cc2C#N)cc1 (stereo not drawn) [Example 37]	100	95	60	30	20	0	100	90	20	0	10	0	95	90	0	0	40	30	10	0
CCCCCCOC(=O)C(C)Oc1ccc(Oc2ccc(C(F)(F)F)cc2Cl)cc1 (stereo not drawn) [Example 36]	100	100	100	0	0	0	100	100	0	0	0	0	0	60	0	0	0	0	0	0
CCOC(=O)CCC(C)Oc1ccc(Oc2ccc(C(F)(F)F)cc2Cl)cc1 (stereo not drawn) [Example 38]	90	100	100	0	0	0	100	99	0	0	0	0	0	90	0	0	0	0	0	0
